These are literature values, as cited in patent US12133918B2, “Partially pre-gelatinized cassava starch as pharmaceutical excipient” (Griffin Gamma, LLC, priority 2021, dated 2024).

The conditions of this data set: literature and experimental data.

As for `CC(=O)Oc1ccccc1C(=O)O` [Acetylsalicylic acid, acetylsalicylic acid], the BCS class result is reported as “Class I”, the “permeability (BCS)” value is recorded as “highly permeable” and the “solubility (BCS)” value is reported as “highly soluble”.

For `COc1ccccc1OCC(O)CO` (centres unmarked) [Guaifenesin, 3-(2-methoxyphenoxy)-1,2-propanediol], the “permeability (BCS)” value is on record as “highly permeable” and the “solubility (BCS)” value is recorded as “highly soluble”.
